Test results as given in PubChem BioAssay AID2060488 (Molecular Pharmacology Branch, DTP, NCI, 2025).

System: 966289-007-R4-J1-PDC complex spheroid viability
Assay: Anticancer human tumor 966289-007-R4-J1-PDC patient-derived pancreatic adenocarcinoma cell line growth inhibition [GQUAD]
Conditions: for IC50: curve of first compound; for viability, T/C: stronger effect = lower value; active means viability on the fitted dose curve at most 10% of control; inactive means the rest
How it was run: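 Multi-cell-type spheroids of tumor cells with HUVEC and mesenchymal stem cells, treated with drug combinations. Concentrations descend in half-log steps from near clinical Cmax, or from 10 microM where Cmax is unknown; viability read-out.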

[1] = second compound 0.0316 µM, first compound 0.0316 µM
[2] = second compound 0.0316 µM, first compound 0.1 µM
[3] = second compound 0.0316 µM, first compound 0.316 µM
[4] = second compound 0.0316 µM, first compound 1 µM
[5] = second compound 0.0316 µM, first compound 3.16 µM
[6] = second compound 0.0316 µM, first compound 10 µM
[7] = second compound 0.1 µM, first compound 0.0316 µM
[8] = second compound 0.1 µM, first compound 0.1 µM
[9] = second compound 0.1 µM, first compound 0.316 µM
[10] = second compound 0.1 µM, first compound 1 µM
[11] = second compound 0.1 µM, first compound 3.16 µM
[12] = second compound 0.1 µM, first compound 10 µM
[13] = second compound 0.316 µM, first compound 0.0316 µM
[14] = second compound 0.316 µM, first compound 0.1 µM
[15] = second compound 0.316 µM, first compound 0.316 µM
[16] = second compound 0.316 µM, first compound 1 µM
[17] = second compound 0.316 µM, first compound 3.16 µM
[18] = second compound 0.316 µM, first compound 10 µM
[19] = second compound 1 µM, first compound 0.0316 µM
[20] = second compound 1 µM, first compound 0.1 µM
[21] = second compound 1 µM, first compound 0.316 µM
[22] = second compound 1 µM, first compound 1 µM
[23] = second compound 1 µM, first compound 3.16 µM
[24] = second compound 1 µM, first compound 10 µM
[25] = second compound 3.16 µM, first compound 0.0316 µM
[26] = second compound 3.16 µM, first compound 0.1 µM
[27] = second compound 3.16 µM, first compound 0.316 µM
[28] = second compound 3.16 µM, first compound 1 µM
[29] = second compound 3.16 µM, first compound 3.16 µM
[30] = second compound 3.16 µM, first compound 10 µM
[31] = second compound 10 µM, first compound 0.0316 µM
[32] = second compound 10 µM, first compound 0.1 µM
[33] = second compound 10 µM, first compound 0.316 µM
[34] = second compound 10 µM, first compound 1 µM
[35] = second compound 10 µM, first compound 3.16 µM
[36] = second compound 10 µM, first compound 10 µM
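Further: spheroids exposed to the agents for seven days before readout.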
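Wherever viability, T/C is given: percent viability relative to DMSO vehicle control wells taken as 100%.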

C=CCn1c(=O)c2cnc(Nc3ccc(N4CCN(C)CC4)cc3)nc2n1-c1cccc(C(C)(C)O)n1 + Cc1[nH]c2ccc(F)cc2c1-c1nc2c3cccnc3c3ncccc3c2[nH]1
1760 nM: IC50 (second compound 3.16 µM) | IC50 (second compound 10 µM)
1840 nM: IC50 (second compound 0.316 µM)
1830 nM: IC50 (second compound 0.0316 µM) | IC50 (second compound 0.1 µM)
inactive: viability, T/C [1] 101% | viability, T/C [2] 96.7% | viability, T/C [3] 112% | viability, T/C [4] 99.7% | viability, T/C [7] 99.5% | viability, T/C [8] 98.9% | viability, T/C [9] 110% | viability, T/C [10] 99.9% | viability, T/C [13] 97.5% | viability, T/C [14] 103% | viability, T/C [15] 111% | viability, T/C [16] 98% | viability, T/C [19] 95.7% | viability, T/C [20] 98.3% | viability, T/C [21] 111% | viability, T/C [22] 100% | viability, T/C [25] 102% | viability, T/C [26] 109% | viability, T/C [27] 109% | viability, T/C [28] 92.9% | viability, T/C [31] 106% | viability, T/C [32] 107% | viability, T/C [33] 109% | viability, T/C [34] 93.5%
active: viability, T/C [5] 4.85% | viability, T/C [6] 1.9% | viability, T/C [11] 4.92% | viability, T/C [12] 2.17% | viability, T/C [17] 7.35% | viability, T/C [18] 1.74% | viability, T/C [23] 6.22% | viability, T/C [24] 2% | viability, T/C [29] 5.37% | viability, T/C [30] 2.62% | viability, T/C [35] 4.68% | viability, T/C [36] 2.33%
1850 nM: IC50 (second compound 1 µM)

CC(C)(O)C1CCC(Nc2ccc3ncc(-c4cccc(C(F)(F)F)c4)n3n2)CC1 (stereo unspecified) + Cc1[nH]c2ccc(F)cc2c1-c1nc2c3cccnc3c3ncccc3c2[nH]1
inactive: viability, T/C [1] 108% | viability, T/C [2] 105% | viability, T/C [3] 109% | viability, T/C [4] 89% | viability, T/C [5] 71.7% | viability, T/C [6] 55.3% | viability, T/C [7] 104% | viability, T/C [8] 100% | viability, T/C [9] 99.8% | viability, T/C [10] 93.2% | viability, T/C [11] 47.5% | viability, T/C [12] 51.3% | viability, T/C [13] 101% | viability, T/C [14] 111% | viability, T/C [15] 102% | viability, T/C [16] 105% | viability, T/C [17] 40.7% | viability, T/C [18] 52.6% | viability, T/C [19] 106% | viability, T/C [20] 106% | viability, T/C [21] 98.9% | viability, T/C [22] 110% | viability, T/C [23] 28.9% | viability, T/C [24] 41% | viability, T/C [25] 104% | viability, T/C [26] 107% | viability, T/C [27] 113% | viability, T/C [28] 113% | viability, T/C [29] 22.5% | viability, T/C [30] 47.1% | viability, T/C [31] 97.1% | viability, T/C [32] 111% | viability, T/C [33] 112% | viability, T/C [34] 109% | viability, T/C [35] 26.2% | viability, T/C [36] 35.4%
3110 nM: IC50 (second compound 0.1 µM)
2470 nM: IC50 (second compound 1 µM)
> 10000 nM: IC50 (second compound 0.0316 µM)
2960 nM: IC50 (second compound 0.316 µM)
2370 nM: IC50 (second compound 10 µM)
2500 nM: IC50 (second compound 3.16 µM)

CCCS(=O)(=O)Nc1ccc(F)c(C(=O)c2c[nH]c3ncc(-c4ccc(Cl)cc4)cc23)c1F + Cc1[nH]c2ccc(F)cc2c1-c1nc2c3cccnc3c3ncccc3c2[nH]1
8670 nM: IC50 (second compound 1 µM)
9390 nM: IC50 (second compound 0.0316 µM)
7830 nM: IC50 (second compound 10 µM)
7250 nM: IC50 (second compound 3.16 µM)
8560 nM: IC50 (second compound 0.1 µM)
inactive: viability, T/C [1] 111% | viability, T/C [2] 105% | viability, T/C [3] 116% | viability, T/C [4] 113% | viability, T/C [5] 113% | viability, T/C [6] 46.3% | viability, T/C [7] 101% | viability, T/C [8] 110% | viability, T/C [9] 113% | viability, T/C [10] 112% | viability, T/C [11] 111% | viability, T/C [12] 40.5% | viability, T/C [13] 101% | viability, T/C [14] 108% | viability, T/C [15] 110% | viability, T/C [16] 114% | viability, T/C [17] 112% | viability, T/C [18] 39.3% | viability, T/C [19] 97.6% | viability, T/C [20] 112% | viability, T/C [21] 115% | viability, T/C [22] 114% | viability, T/C [23] 116% | viability, T/C [24] 41.4% | viability, T/C [25] 110% | viability, T/C [26] 114% | viability, T/C [27] 115% | viability, T/C [28] 110% | viability, T/C [29] 108% | viability, T/C [30] 27.6% | viability, T/C [31] 104% | viability, T/C [32] 111% | viability, T/C [33] 115% | viability, T/C [34] 112% | viability, T/C [35] 112% | viability, T/C [36] 33.5%
8400 nM: IC50 (second compound 0.316 µM)
